Assay results taken from paper PMC6027146, “Synthesis and Structure-Activity Relationships of (−)-cis-N-Normetazocine-Based LP1 Derivatives” (Pharmaceuticals, 2018).

Tests used:
rat-DOR = molecular target: T1, rat-DOR (Rattus norvegicus, UniProt P33533); experiment: Radioligand competition binding, [3H]-DPN, HEK293 membranes, DOR; details: [3H]-DPN displacement; means ± SEM of three experiments in duplicate; read-out: Ki (μM) ± SEM DOR
T1 construct: expressed in transfected cells
Protocol: (§1) All synthesized compounds were tested in vitro by radioligand competition binding using [^3H]-diprenorphine ([^3H]-DPN) to measure the affinity for opioid receptor subtypes in membranes from HEK293 cells stably expressing either MOR, DOR, or KOR, as previously described.
(§2) Confluent monolayers of HEK293 (human embryonic kidney 293) cells stably expressing rat-MOR, rat-DOR, or human-KOR were harvested, collected by centrifugation at 1500 rpm for 5 min, and washed once with phosphate-buffered saline (PBS) at pH 7.5. Membranes from cell pellets were carried out as described by Georgoussi and Zioudrou (1993) and Papakonstantinou et al. (2015). Briefly, cell pellets were resuspended in ice-cold membrane buffer (10 mM Tris-HCl, pH 7.5 and 0.1 mM EDTA), homogenized, and centrifuged at 2,000 g for 3 min at 4 °C. Supernatants were further centrifuged at 45,000 rpm for 30 min at 4 °C. The membrane pellet was resuspended in ice-cold membrane buffer at a protein concentration of approximately 1 mg/mL and stored in aliquots at −70 °C. Protein concentration was determined according to Bradford assay.
(§3) In the experiments designed to define compound affinity and selectivity for MOR, DOR, and KOR, membranes expressing each of these opioid receptors ([…]) were incubated at 30 °C for 45 min in buffer containing 50 mM Tris-HCl, pH 7.5, 100 mM NaCl, and 10 mM MgCl2 as described by Georgoussi et al. […] The ability of compounds 10–16 to displace [^3H]-DPN (3.75 nM) binding to the opioid receptors was assessed as described by Morou And Georgoussi (2005). Non-specific binding was measured in the presence of […] Naloxone. The reaction was stopped by rapid filtration and three washes in ice-cold 50 mM Tris-HCl, pH 7.4, through GF/C filters (Whatman, Maidstone, UK) using an automated cell harvester (Brandel Inc., Gaithersburg, MD, USA). The radioactivity was measured by liquid scintillation counting (Liquid Scintillation Analyzer, Packard).
(§4) Analysis of the binding data was performed using the Origin 7.5 software (OriginLab Corporation, Northampton, MA, USA). In calcium mobilization experiments, data were analyzed by non-linear curve fitting equation, using GraphPad 5.0 software. […] Ligand efficacy was expressed as intrinsic activity (α), calculated as the ratio between the Emax of the ligand and that of the respective standards. Calcium mobilization data were expressed as FIU (fluorescence intensity units) in percent, over the baseline. Agonist potencies are given as pEC50 (the negative logarithm to base 10 of the molar concentration of an agonist that produces 50% of the maximal possible effect, Emax). Concentration response curves to agonists were fitted with the following equation: Effect = baseline + (Emax − baseline)/(1+10^(LogEC50 − X) ∗ HillSlope) where X is the agonist concentration.

rat-MOR = molecular target: T2, rat-MOR (Rattus norvegicus, UniProt P33535); experiment: Radioligand competition binding, [3H]-DPN, HEK293 membranes, MOR; details: [3H]-DPN displacement; means ± SEM of three experiments in duplicate; read-out: Ki (μM) ± SEM MOR
T2 construct: expressed in transfected cells
T2 sequence (P33535 whole entry): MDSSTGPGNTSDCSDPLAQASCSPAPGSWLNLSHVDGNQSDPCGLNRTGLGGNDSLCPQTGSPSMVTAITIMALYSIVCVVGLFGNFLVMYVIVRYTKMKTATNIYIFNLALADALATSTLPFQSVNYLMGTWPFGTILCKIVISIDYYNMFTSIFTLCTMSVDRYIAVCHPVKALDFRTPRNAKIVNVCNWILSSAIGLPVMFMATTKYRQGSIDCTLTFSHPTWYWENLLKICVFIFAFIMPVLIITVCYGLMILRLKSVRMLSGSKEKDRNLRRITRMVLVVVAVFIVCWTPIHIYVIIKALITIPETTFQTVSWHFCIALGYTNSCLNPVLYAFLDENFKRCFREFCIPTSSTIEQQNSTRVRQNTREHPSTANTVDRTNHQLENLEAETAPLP
Protocol: as §1, §2, §3, §4

recombinant human DOR = molecular target: T3, recombinant human DOR (Homo sapiens, UniProt P41143); experiment: Calcium mobilization assay, CHO-DOR cells expressing GαqG66Di5; format: cell-based
T3 construct: expressed in transfected cells; supplied by Dr. Eva Varga (University of Arizona); infected with a retrovirus for GαqG66Di5
T3 sequence (P41143 whole entry): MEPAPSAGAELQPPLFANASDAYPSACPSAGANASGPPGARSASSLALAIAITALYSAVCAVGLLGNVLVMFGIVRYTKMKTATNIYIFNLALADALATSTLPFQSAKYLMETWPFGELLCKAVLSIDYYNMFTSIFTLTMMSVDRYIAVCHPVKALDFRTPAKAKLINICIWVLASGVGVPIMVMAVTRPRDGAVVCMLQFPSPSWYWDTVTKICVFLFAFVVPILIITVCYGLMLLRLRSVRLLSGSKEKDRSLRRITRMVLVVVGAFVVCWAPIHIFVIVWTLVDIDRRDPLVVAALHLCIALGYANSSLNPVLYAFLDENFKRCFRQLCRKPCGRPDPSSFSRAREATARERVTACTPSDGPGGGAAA
Protocol: The pharmacological characterization of LP1 derivatives 2 and 10–16 was performed by calcium mobilization assay (Table 2). This procedure was preliminarily validated through a series of experiments where the effects of DPDPE, dermorphin, and dynorphin A were assessed in CHO cells expressing the human recombinant opioid receptors and Gαqi5 or GαqG66Di5 chimeric proteins.
Chinese hamster ovary (CHO) cells expressing the recombinant human MOR and KOR (CHO^MOR and CHO^KOR) were kindly provided by Dr. Larry Toll (SRI International, Menlo Park, CA, USA), and CHO cells expressing the recombinant human DOR (CHO^DOR) were supplied by Dr. Eva Varga (Department of Medical Pharmacology, The University of Arizona, Tucson, AZ, USA). CHO cells lines permanently coexpressing the opioid receptors and the C-terminally modified Gαqi5 were prepared by infecting the CHO lines described above with a recombinant retrovirus expressing the chimeric α subunit and the hygromycin resistance gene. Similarly, CHO cells lines permanently coexpressing DOR and the C-terminally modified GαqG66Di5 were prepared by infecting the CHO lines described above with a recombinant retrovirus expressing the chimeric α subunit and the hygromycin resistance gene. Polyclonal cell lines were generated using the pantropic retroviral expression system form BD-Clontech, as described previously. Stable lines were selected under hygromycin B (100 μg/mL) and geneticin (600 μg/mL) for 2–3 weeks after the infection.
CHO cells, expressing human opioid receptors and the Gαqi5 protein, and CHODOR, expressing the GαqG66Di5 protein, were maintained in culture medium consisting of Dulbecco minimum essential medium (DMEM) and Ham F-12 (1:1) (50/50) supplemented with 10% fetal calf serum (FCS), L-glutamine (2 mM), geneticin (200 μg/mL; G418), hygromycin B (100 μg/mL) at 37 °C in 5% CO2 humidified air. When confluence was reached (3–4 days), cells were subcultured as required using trypsin/EDTA, and used for experimentation. The different cell lines were seeded at a density of […] into black 96-well, clear-bottomed plates. After 24 h incubation, the cells were loaded with medium supplemented with 2.5 mM probenecid, 3 μM of the calcium sensitive fluorescent dye Fluo-4 AM, and 0.01% pluronic acid, for 30 min at 37 °C. Afterwards, the loading solution was aspirated and 100 μL/well of assay buffer—HBSS supplemented with 20 mM HEPES, 2.5 mM probenecid and 500 μM Brilliant Black (Aldrich, St. Louis, MO, USA)—was added. Serial dilutions of ligands for experimental use were made in HBSS/HEPES (20 mM) buffer (containing 0.005% BSA fraction V). After placing both plates (cell culture and compound plate) into the FlexStation II (Molecular Device, Union City, San Jose, CA 94587, USA), fluorescence changes were measured at room temperature. Online additions were carried out in a volume of 50 μL/well. Antagonists were incubated 15 min before the addition of the agonist. Maximum change in fluorescence, expressed in percent of baseline fluorescence, was used to determine agonist response.
as §4, with “concentration. […]” for “concentration.”

T1 sequence (P33533 whole entry): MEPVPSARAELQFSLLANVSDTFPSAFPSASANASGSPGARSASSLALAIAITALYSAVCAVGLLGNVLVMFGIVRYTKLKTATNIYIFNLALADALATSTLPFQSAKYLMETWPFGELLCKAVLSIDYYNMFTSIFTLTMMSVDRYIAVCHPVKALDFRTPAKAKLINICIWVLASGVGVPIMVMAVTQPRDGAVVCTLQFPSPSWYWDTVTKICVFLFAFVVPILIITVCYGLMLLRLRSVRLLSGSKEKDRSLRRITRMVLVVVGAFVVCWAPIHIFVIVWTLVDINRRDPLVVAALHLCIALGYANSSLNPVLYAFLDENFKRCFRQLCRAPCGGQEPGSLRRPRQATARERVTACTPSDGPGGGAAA

Work on `C[C@H]1[C@H]2Cc3ccc(O)cc3[C@]1(C)CCN2CCC(=O)Nc1ccccc1` [LP1, 3-[(2R,6R,11R)-8-hydroxy-6,11-dimethyl-1,4,5,6-tetrahydro-2,6-methano-3-benzazocin-3(2H)-yl]-N-phenylpropanamide, reference compound] yielded a Ki (rat-DOR) of 0.033 ± 0.02 µM, a Ki (rat-MOR) of 0.049 ± 0.015 µM and an EC50 (recombinant human DOR) of 1120 nM. The “functional profile at DOR” value (recombinant human DOR; calcium mobilization) was “partial DOR agonist”.
